PubChem BioAssay (NCI)
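GI50 = concentration required for 50% inhibition of growth. At the TGI there is no net growth.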

Tests used:
Experiment in all cases: growth of human tumour cells (NCI), 384-well format
M14 melanoma = system: M14 melanoma
HOP-62 NSCLC = system: HOP-62 NSCLC
HL-60(TB) leukemia = system: HL-60(TB) leukemia
BT-549 breast = system: BT-549 breast
HT29 colon = system: HT29 colon
NCI-H522 lung = system: NCI-H522 lung
RXF 393 renal = system: RXF 393 renal
NCI/ADR-RES ovarian = system: NCI/ADR-RES ovarian
SR leukemia = system: SR leukemia
MALME-3M melanoma = system: MALME-3M melanoma
U251 glioblastoma = system: U251 glioblastoma
HCC-2998 colon = system: HCC-2998 colon
ACHN renal = system: ACHN renal
SW-620 colon = system: SW-620 colon
LOX IMVI melanoma = system: LOX IMVI melanoma
SNB-19 CNS = system: SNB-19 CNS
CAKI-1 renal = system: CAKI-1 renal
COLO 205 colon = system: COLO 205 colon
MDA-MB-231 breast = system: MDA-MB-231 breast
MDA-MB-468 breast = system: MDA-MB-468 breast
786-0 renal = system: 786-0 renal
UACC-257 melanoma = system: UACC-257 melanoma
K-562 leukemia = system: K-562 leukemia
IGROV1 ovarian = system: IGROV1 ovarian
MDA-MB-435 melanoma = system: MDA-MB-435 melanoma
UO-31 renal = system: UO-31 renal
HOP-92 NSCLC = system: HOP-92 NSCLC
NCI-H23 lung = system: NCI-H23 lung
NCI-H460 NSCLC = system: NCI-H460 NSCLC
SK-MEL-28 melanoma = system: SK-MEL-28 melanoma
DU-145 prostate = system: DU-145 prostate
HCT-116 colon = system: HCT-116 colon
OVCAR-8 ovarian = system: OVCAR-8 ovarian
MCF7 breast = system: MCF7 breast
SF-295 CNS = system: SF-295 CNS
A498 renal = system: A498 renal
SK-MEL-2 melanoma = system: SK-MEL-2 melanoma
NCI-H226 lung = system: NCI-H226 lung
OVCAR-4 ovarian = system: OVCAR-4 ovarian
CCRF-CEM leukemia = system: CCRF-CEM leukemia
SK-OV-3 ovarian = system: SK-OV-3 ovarian
SK-MEL-5 melanoma = system: SK-MEL-5 melanoma
SF-539 CNS = system: SF-539 CNS
UACC-62 melanoma = system: UACC-62 melanoma
KM12 colon = system: KM12 colon
RPMI-8226 leukemia = system: RPMI-8226 leukemia
MOLT-4 leukemia = system: MOLT-4 leukemia
SF-268 CNS = system: SF-268 CNS
NCI-H322M lung = system: NCI-H322M lung
A549 NSCLC = system: A549 NSCLC
PC-3 prostate = system: PC-3 prostate
SN12C renal = system: SN12C renal
HCT-15 colon = system: HCT-15 colon
OVCAR-5 ovarian = system: OVCAR-5 ovarian
OVCAR-3 ovarian = system: OVCAR-3 ovarian
TK-10 renal = system: TK-10 renal

Q: What does the source list for Cc1c(-c2c(F)cc(C(N)=O)c3[nH]c4c(c23)CC[C@H](C(C)(C)O)C4)cccc1-n1c(=O)c2cccc(F)c2n(C)c1=O?
A: GI50 (M14 melanoma): 2.2 µM; TGI (M14 melanoma): 10.1 µM; GI50 (HOP-62 NSCLC): 8.36 µM; TGI (HOP-62 NSCLC): 26.5 µM; GI50 (HL-60(TB) leukemia): 1.12 µM; TGI (HL-60(TB) leukemia): 2.34 µM; GI50 (BT-549 breast): 5.1 µM; TGI (BT-549 breast): 15.7 µM; GI50 (HT29 colon): 1.47 µM; TGI (HT29 colon): 11.8 µM; GI50 (NCI-H522 lung): 1.89 µM; TGI (NCI-H522 lung): 6.56 µM; GI50 (RXF 393 renal): 1.96 µM; TGI (RXF 393 renal): 4.07 µM; GI50 (NCI/ADR-RES ovarian): 3.55 µM; TGI (NCI/ADR-RES ovarian): 13 µM; GI50 (SR leukemia): 1.66 µM; TGI (SR leukemia): 3.04 µM; GI50 (MALME-3M melanoma): 1.79 µM; TGI (MALME-3M melanoma): 6.95 µM; GI50 (U251 glioblastoma): 5.78 µM; TGI (U251 glioblastoma): 19.8 µM; GI50 (HCC-2998 colon): 2.33 µM; TGI (HCC-2998 colon): 6.99 µM; GI50 (ACHN renal): 1.97 µM; TGI (ACHN renal): 5.73 µM; GI50 (SW-620 colon): 2.94 µM; TGI (SW-620 colon): 13.5 µM; GI50 (LOX IMVI melanoma): 5.98 µM; TGI (LOX IMVI melanoma): 16.2 µM; GI50 (SNB-19 CNS): 9.94 µM; TGI (SNB-19 CNS): 24.5 µM; GI50 (CAKI-1 renal): 2.21 µM; TGI (CAKI-1 renal): 5.72 µM; GI50 (COLO 205 colon): 1.61 µM; TGI (COLO 205 colon): 4.46 µM; GI50 (MDA-MB-231 breast): 3.59 µM; TGI (MDA-MB-231 breast): 14.5 µM; GI50 (MDA-MB-468 breast): 2.86 µM; TGI (MDA-MB-468 breast): 5.86 µM; GI50 ([…]-0 renal): 3.27 µM; TGI (786-0 renal): 14.5 µM; GI50 (UACC-257 melanoma): 2.29 µM; TGI (UACC-257 melanoma): 10.7 µM; GI50 (K-562 leukemia): 4.66 µM; TGI (K-562 leukemia): > 100 µM; GI50 (IGROV1 ovarian): 3.17 µM; TGI (IGROV1 ovarian): 9.53 µM; GI50 (MDA-MB-435 melanoma): 4.13 µM; TGI (MDA-MB-435 melanoma): 15.1 µM; GI50 (UO-31 renal): 2 µM; TGI (UO-31 renal): 5.39 µM; GI50 (HOP-92 NSCLC): 1.45 µM; TGI (HOP-92 NSCLC): 4.8 µM; GI50 (NCI-H23 lung): 2.67 µM; TGI (NCI-H23 lung): 10.9 µM; GI50 (NCI-H460 NSCLC): 2.9 µM; TGI (NCI-H460 NSCLC): 13.1 µM; GI50 (SK-MEL-28 melanoma): 2.87 µM; TGI (SK-MEL-28 melanoma): 13.8 µM; GI50 (DU-145 prostate): 4.85 µM; TGI (DU-145 prostate): 23 µM; GI50 (HCT-116 colon): 3.14 µM; TGI (HCT-116 colon): 12.1 µM; GI50 (OVCAR-8 ovarian): 4.62 µM; TGI (OVCAR-8 ovarian): 22.9 µM; GI50 (MCF7 breast): 1.29 µM; TGI (MCF7 breast): 3.56 µM; GI50 (SF-295 CNS): 3.42 µM; TGI (SF-295 CNS): 12 µM; GI50 (A498 renal): 3.25 µM; TGI (A498 renal): 9.41 µM; GI50 (SK-MEL-2 melanoma): 2.18 µM; TGI (SK-MEL-2 melanoma): 7.9 µM; GI50 (NCI-H226 lung): 2.56 µM; TGI (NCI-H226 lung): 10.4 µM; GI50 (OVCAR-4 ovarian): 2.8 µM; TGI (OVCAR-4 ovarian): 7.38 µM; GI50 (CCRF-CEM leukemia): 3.33 µM; TGI (CCRF-CEM leukemia): 9.78 µM; GI50 (SK-OV-3 ovarian): 2.26 µM; TGI (SK-OV-3 ovarian): 8.77 µM; GI50 (SK-MEL-5 melanoma): 4.31 µM; TGI (SK-MEL-5 melanoma): 14.1 µM; GI50 (SF-539 CNS): 8 µM; TGI (SF-539 CNS): 20.9 µM; GI50 (UACC-62 melanoma): 3.6 µM; TGI (UACC-62 melanoma): 15.7 µM; GI50 (KM12 colon): 0.284 µM; TGI (KM12 colon): 1.54 µM; GI50 (RPMI-8226 leukemia): 1.32 µM; TGI (RPMI-8226 leukemia): 2.7 µM; GI50 (MOLT-4 leukemia): 1.53 µM; TGI (MOLT-4 leukemia): 2.93 µM; GI50 (SF-268 CNS): 5.58 µM; TGI (SF-268 CNS): 21.4 µM; GI50 (NCI-H322M lung): 4.08 µM; TGI (NCI-H322M lung): 23.6 µM; GI50 (A549 NSCLC): 2.43 µM; TGI (A549 NSCLC): 9.34 µM; GI50 (PC-3 prostate): 3.85 µM; TGI (PC-3 prostate): 17 µM; GI50 (SN12C renal): 3.26 µM; TGI (SN12C renal): 13.1 µM; GI50 (HCT-15 colon): 3.7 µM; TGI (HCT-15 colon): 13.6 µM; GI50 (OVCAR-5 ovarian): 2.56 µM; TGI (OVCAR-5 ovarian): 11.3 µM; GI50 (OVCAR-3 ovarian): 2.54 µM; TGI (OVCAR-3 ovarian): 6.39 µM; GI50 (TK-10 renal): 2.16 µM; TGI (TK-10 renal): 4.76 µM
